Results from the NIST ThermoML archive (doi:10.1016/j.jct.2018.07.017).
± gives the expanded uncertainty stated by the source.

Columns and labels:
[1] = Molar enthalpy of transition or fusion; conditions: Crystal; DSC
[2] = for vapor or sublimation pressure: Transpiration method

CC(C)(O)C(=O)O [2-hydroxy-2-methylpropanoic acid]
Molar enthalpy of transition or fusion [1]: 4.21 ± 0.143 kcal/mol
mass density ([2]; 293 K, 101.33 kPa, Crystal, Pycnometric method): 1240 ± 400 kg/m3
vapor or sublimation pressure ([2]; 313.3 K, Crystal): 0.005081 ± 0.00037 kPa
vapor or sublimation pressure ([2]; 318.2 K, Crystal): 0.008221 ± 0.00057 kPa
vapor or sublimation pressure ([2]; 323.2 K, Crystal): 0.01418 ± 0.00095 kPa
vapor or sublimation pressure ([2]; 328.1 K, Crystal): 0.02187 ± 0.0014 kPa
vapor or sublimation pressure ([2]; 333.1 K, Crystal): 0.03606 ± 0.0024 kPa
vapor or sublimation pressure ([2]; 338.1 K, Crystal): 0.05555 ± 0.0036 kPa
vapor or sublimation pressure ([2]; 343.1 K, Crystal): 0.08884 ± 0.0057 kPa
vapor or sublimation pressure ([2]; 347.8 K, Crystal): 0.139 ± 0.0088 kPa
vapor or sublimation pressure ([2]; 356 K, Liquid): 0.2724 ± 0.017 kPa
vapor or sublimation pressure ([2]; 359.8 K, Liquid): 0.3463 ± 0.022 kPa
vapor or sublimation pressure ([2]; 363.7 K, Liquid): 0.4479 ± 0.028 kPa
vapor or sublimation pressure ([2]; 367.7 K, Liquid): 0.5693 ± 0.035 kPa
vapor or sublimation pressure ([2]; 369.3 K, Liquid): 0.6241 ± 0.039 kPa
vapor or sublimation pressure ([2]; 371.7 K, Liquid): 0.7211 ± 0.045 kPa
vapor or sublimation pressure ([2]; 373 K, Liquid): 0.7664 ± 0.048 kPa
vapor or sublimation pressure ([2]; 375.6 K, Liquid): 0.8814 ± 0.055 kPa
vapor or sublimation pressure ([2]; 377.1 K, Liquid): 0.9824 ± 0.061 kPa
vapor or sublimation pressure ([2]; 379.5 K, Liquid): 1.093 ± 0.068 kPa
vapor or sublimation pressure ([2]; 379.6 K, Liquid): 1.097 ± 0.068 kPa
Normal melting temperature ([2]; Crystal, DTA): 75 ± 1.1 °C
